From publication PMC8556085, “Antimicrobial and Antioxidant Secondary Metabolites from Trifolium baccarinii Chiov. (Fabaceae) and Their Mechanisms of Antibacterial Action” (BioMed Research International, 2021)
In brackets after ≈: the same amount, converted by molar mass. Marks after values point to notes of the source that are not given here.

How the values were obtained:
[1] = set-up: method as in doi:10.22159/ijpps.2017v9i2.13964; conditions: cited from earlier work
[2] = test system: Pseudomonas aeruginosa ATCC27853; experiment: Broth microdilution MIC/MMC; format: cell-based; conditions: for MBC / MMC/MIC: Pseudomonas aeruginosa ATCC27853; for MIC: Pseudomonas aeruginosa ATCC27853, 24 h, 37°C, read-out: MIC
Description: (§1) The antimicrobial activity was performed against five bacterial and two fungal species. The selected microorganisms were the Gram-positive (Staphylococcus aureus ATCC25923, methicillin-resistant Staphylococcus aureus 03 (MRSA03), and methicillin-resistant Staphylococcus aureus 04 (MRSA04)) and Gram-negative (Pseudomonas aeruginosa ATCC27853 and Escherichia coli S2(1)) bacteria and yeast strains of Candida albicans ATCC10231 and Cryptococcus neoformans H99. These microorganisms were taken from our laboratory collection. The fungal and bacterial strains were conserved on Sabouraud Dextrose Agar (SDA, Conda, Madrid, Spain) and nutrient agar (NA, Conda) slants, respectively.
(§2) The antimicrobial activity was investigated by determining the minimum inhibitory concentrations (MICs), minimum bactericidal concentrations (MBC), and minimum fungicidal concentrations (MFCs). MICs of extracts/compounds were monitored using the broth microdilution method. Dimethyl sulfoxide (DMSO, Fisher Chemicals) was used to dissolve the test sample to produce a stock solution that was twofold serially diluted in Mueller-Hinton broth (MHB) for bacteria and Sabouraud Dextrose Broth (SDB) for fungi to obtain a concentration range of 4096 to 0.25 μg/mL. One hundred microliters of each concentration was introduced into a well (96-well microplate) containing 90 μL of SDB or MHB and 10 μL of inoculum (at 1 × 10^6 CFU/mL for bacteria and 1 × 10^5 spores/mL for yeasts) which were added to obtain a final concentration range of 2048 to 0.125 μg/mL. Plates were covered and incubated on the shaker at 37°C, 30°C, and 30°C during 24 h, 48 h, and 72 h for bacteria, Candida albicans, and Cryptococcus neoformans, respectively. The MICs were visually assessed after the incubation period and were considered the lowest sample concentration that inhibits the growth or the visual growth of the organism.
(§3) The positive controls were oxacillin (Sigma-Aldrich, Steinheim, Germany) for bacteria and nystatin (Sigma-Aldrich, Steinheim, Germany) for yeasts, and the negative control was broth with 20 μL of DMSO. The assay was carried out in triplicate.

[3] = test system: methicillin-resistant Staphylococcus aureus 04 (MRSA04); experiment: Broth microdilution MIC/MMC; format: cell-based; conditions: for MMC/MIC / MBC: MRSA04; for MBC / MIC: Staphylococcus aureus; for MIC: MRSA04, 24 h, 37°C, read-out: MIC
Description: as §1, §2, §3

Escherichia coli S2(1) = experiment: Broth microdilution MIC/MMC; format: cell-based; conditions: for MIC: 24 h, 37°C, read-out: MIC
Description: as §1, §2, §3

[4] = test system: methicillin-resistant Staphylococcus aureus 03 (MRSA03); experiment: Broth microdilution MIC/MMC; format: cell-based; conditions: for MMC/MIC / MBC: MRSA03; for MBC / MIC: Staphylococcus aureus; for MIC: MRSA03, 24 h, 37°C, read-out: MIC
Description: as §1, §2, §3

[5] = test system: Candida albicans ATCC10231; experiment: Broth microdilution MIC/MMC; format: cell-based; conditions: for MFC / MMC/MIC: Candida albicans ATCC10231; for MIC: Candida albicans ATCC10231, 48 h, 30°C, read-out: MIC
Description: as §1, §2, §3

[6] = test system: Cryptococcus neoformans H99; experiment: Broth microdilution MIC/MMC; format: cell-based; conditions: for MFC / MMC/MIC: Cryptococcus neoformans H99; for MIC: Cryptococcus neoformans H99, 72 h, 30°C, read-out: MIC
Description: as §1, §2, §3

[7] = test system: Staphylococcus aureus ATCC25923; experiment: Broth microdilution MIC/MMC; format: cell-based; conditions: for MBC / MMC/MIC: Staphylococcus aureus ATCC25923; for MIC: Staphylococcus aureus ATCC25923, 24 h, 37°C, read-out: MIC
Description: as §1, §2, §3

[8] = test system: yeasts (C. albicans, C. tropicalis, and C. neoformans); set-up: method as in PMID 26887239; conditions: cited from earlier work
[9] = set-up: method as in doi:10.22159/ijpps.2017v9i2.13964; conditions: cited from earlier work; remark: listed apart in the source
[10] = test system: tested bacteria and yeasts; experiment: Broth microdilution MIC/MMC, summary over all strains; format: cell-based; conditions: for antimicrobial activity class of pure compounds by cutoff points: against specific microorganism, cutoff points of ref 33; for MIC: read-out: MIC (range over the tested microorganisms)
Description: as §1, §2, §3

[11] = Gallic acid equivalent antioxidant capacity (GEAC) assay; conditions: ABTS radical, 420 nm, 240 s; mean ± SD
Description: The GEAC test was performed as described previously with some slight modifications. The laccase was purified from Sclerotinia sclerotiorum according to the described protocol. 20 μL of laccase (1 mM stock solution), 20 μL of test sample, 10 μL of ABTS (2,2′-azino-bis(3-ethylbenzothiazoline-6-sulfonic acid) (74 mM stock solution), and 950 μL of acetate buffer (pH = 5.0, 100 mM) were added in a quartz cuvette. The concentrations of the samples in the assay mixture were 800, 400, 200, 100, and 10 μg/mL for the extracts and 200, 100, 50, 25, and 12.5 μg/mL for the isolated compounds. The content of the generated ABTS^●+ radical was measured at 420 nm after 240 s reaction time and was converted to gallic acid equivalents by the use of a calibration curve (Pearson's correlation coefficient: r = 0.998) constructed with 0, 4, 10, 14, 28, 56, and 84 μM gallic acid standards rather than Trolox. Experiments were done in triplicate and repeated three times with similar results.

[12] = set-up: method as in doi:10.22159/ijpps.2017v9i2.13964; conditions: cited from earlier work; remark: listed apart in the source
[13] = test system: Gram-positive (S. aureus, S. epidermidis) and Gram-negative (P. aeruginosa) bacteria; set-up: method as in PMID 26887239; conditions: cited from earlier work
[14] = set-up: method as in doi:10.22159/ijpps.2017v9i2.13964; conditions: cited from earlier work; remark: listed apart in the source
[15] = DPPH free radical scavenging assay; conditions: mean ± SD
Description: The free radical scavenging activity of extracts and compounds was evaluated according to the described method. The EC50 (μg/mL), which is the amount of sample necessary to inhibit by 50% the absorbance of free radical DPPH, was calculated. Vitamin C was used as a standard control. All the analyses were carried out in triplicate and repeated three times.

[16] = set-up: method as in doi:10.22159/ijpps.2017v9i2.13964; conditions: cited from earlier work; remark: listed apart in the source
[17] = test system: methicillin-resistant Staphylococcus aureus and methicillin-sensitive S. aureus strains; set-up: method as in PMID 27284353; conditions: MRSA and MSSA strains, previous study; cited from earlier work

SMILES	MBC [2] [µg/mL]	MMC/MIC [2]	MIC [2] [µg/mL]	MMC/MIC [3]	MBC [3] [µg/mL]	MIC [3] [µg/mL]	MBC (Escherichia coli S2(1)) [µg/mL]	MMC/MIC (Escherichia coli S2(1))	MIC (Escherichia coli S2(1)) [µg/mL]	MMC/MIC [4]	MBC [4] [µg/mL]	MIC [4] [µg/mL]	MFC [5] [µg/mL]	MMC/MIC [5]	MIC [5] [µg/mL]	MFC [6] [µg/mL]	MMC/MIC [6]	MIC [6] [µg/mL]	MBC [7] [µg/mL]	MMC/MIC [7]	further results
COc1ccc(-c2coc3cc(O)ccc3c2=O)cc1 [compound 2, formononetin]	128 (≈ 477 µM)	1	128 (≈ 477 µM)	2	256 (≈ 954 µM)	128 (≈ 477 µM)	128 (≈ 477 µM)	2	64 (≈ 239 µM)	2	256 (≈ 954 µM)	128 (≈ 477 µM)	128 (≈ 477 µM)	2	64 (≈ 239 µM)	64 (≈ 239 µM)	1	64 (≈ 239 µM)	128 (≈ 477 µM)	2	IC50 against hydroxyl radical [1]: 9.48 µg/mL (≈ 35.3 µM); MIC [7]: 64 µg/mL (≈ 239 µM); minimum inhibitory concentration [8]: 25 µg/mL (≈ 93.2 µM); IC50 against nitric oxide [9]: 5.0 µg/mL (≈ 18.6 µM); antimicrobial activity class of pure compounds by cutoff points [10]: moderate/low; MIC [10]: 64 to 128 µg/mL (≈ 239 to 477 µM); Gallic acid equivalent antioxidant capacity (GEAC) [11]: 77.91 ± 0.59^e μg/mL; IC50 against superoxide radical [12]: 4.27 µg/mL (≈ 15.9 µM); minimum inhibitory concentration [13]: 200 µg/mL (≈ 746 µM); IC50 against hydrogen peroxide [14]: 4.75 µg/mL (≈ 17.7 µM); DPPH free radical scavenging activity (EC50) [15]: 6.39 ± 0.62^e μg/mL; IC50 against DPPH [16]: 4.65 µg/mL (≈ 17.3 µM)
O=c1cc(-c2ccc(O)c(O)c2)oc2cc(O)cc(O)c12 [compound 3, luteolin]	64 (≈ 224 µM)	2	32 (≈ 112 µM)	2	64 (≈ 224 µM)	32 (≈ 112 µM)	32 (≈ 112 µM)	1	32 (≈ 112 µM)	1	16 (≈ 55.9 µM)	16 (≈ 55.9 µM)	32 (≈ 112 µM)	2	16 (≈ 55.9 µM)	16 (≈ 55.9 µM)	2	8 (≈ 27.9 µM)	64 (≈ 224 µM)	2	MIC [7]: 32 µg/mL (≈ 112 µM); MIC [17]: 62.5 µg/mL (≈ 218 µM); antimicrobial activity class of pure compounds by cutoff points [10]: significant/moderate; MIC [10]: 8 to 32 µg/mL (≈ 27.9 to 112 µM); Gallic acid equivalent antioxidant capacity (GEAC) [11]: 68.30 ± 0.71^f μg/mL; DPPH free radical scavenging activity (EC50) [15]: 8.02 ± 1.16^e μg/mL
